According to US20240270712A1, “BENZIMIDAZOLE COMPOUND OR SALT THEREOF, CANINE FILARIASIS CONTROL AGENT CONTAINING SAME, AND METHOD OF USE THEREOF” (NIHON NOHYAKU CO., LTD., priority 2021, published 2024):

Tested on: L-3 stage larvae of canine filariae (Dirofilaria immitis)
Test: Impact evaluation test on growth of canine filariae
Format: cell-based
Conditions: 168 h, read-out: growth inhibition rate (growth from L3-stage larvae to L4-stage larvae)

`FC(F)(F)C(F)(F)COc1ccc(-c2nc3cc(Br)c(Br)cc3[nH]2)cn1` [Compound 1-5, 5,6-dibromo-2-(6-(2,2,3,3,3-pentafluoropropyloxy)pyridin-3-yl)benzimidazole] was tested, and the inhibition at 50 ppm was ≥ 50%.
